We go through eight compounds from publication PMC8343220, “The selectivity of α‐adrenoceptor agonists for the human α1A, α1B, and α1D‐adrenoceptors” (Pharmacology Research & Perspectives, 2021).

Molecules are shown by their SMILES.

Assay [1] addresses T1, human α1A‐adrenoceptor (Homo sapiens, UniProt P35348).
T1 construct: expressed in transfected cells; host or cells: CHO-K1
T1 sequence (P35348 1-466): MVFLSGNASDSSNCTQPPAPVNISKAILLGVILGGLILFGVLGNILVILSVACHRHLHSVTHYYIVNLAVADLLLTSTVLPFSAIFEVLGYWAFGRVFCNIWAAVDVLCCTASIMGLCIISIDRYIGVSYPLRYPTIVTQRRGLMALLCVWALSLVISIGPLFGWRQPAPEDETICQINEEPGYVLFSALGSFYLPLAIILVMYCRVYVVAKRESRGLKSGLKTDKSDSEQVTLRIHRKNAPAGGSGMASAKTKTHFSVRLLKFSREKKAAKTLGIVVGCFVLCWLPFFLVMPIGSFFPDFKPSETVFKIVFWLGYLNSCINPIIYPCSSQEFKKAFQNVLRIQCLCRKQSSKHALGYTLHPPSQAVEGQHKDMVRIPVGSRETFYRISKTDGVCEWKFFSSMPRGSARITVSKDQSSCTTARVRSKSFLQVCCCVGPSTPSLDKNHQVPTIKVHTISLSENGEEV
The assay is described as follows: ^3H‐prazosin whole‐cell radioligand binding, CHO‐α1A cells. The note with it: for Kd: CHO‐α1A cells, given as log KD (negative), mean ± SEM; for Affinity selectivity ratio α1A vs α1B: higher affinity for α1A than α1B; for Affinity selectivity ratio α1A vs α1D: higher affinity for α1A than α1D.

Assay [2] addresses T2, human α1D‐adrenoceptor (full length) (Homo sapiens, UniProt P25100).
T2 construct: human α1D‐adrenoceptor (full length) were used; expressed in transfected cells; host or cells: CHO-K1
T2 sequence (P25100 1-572): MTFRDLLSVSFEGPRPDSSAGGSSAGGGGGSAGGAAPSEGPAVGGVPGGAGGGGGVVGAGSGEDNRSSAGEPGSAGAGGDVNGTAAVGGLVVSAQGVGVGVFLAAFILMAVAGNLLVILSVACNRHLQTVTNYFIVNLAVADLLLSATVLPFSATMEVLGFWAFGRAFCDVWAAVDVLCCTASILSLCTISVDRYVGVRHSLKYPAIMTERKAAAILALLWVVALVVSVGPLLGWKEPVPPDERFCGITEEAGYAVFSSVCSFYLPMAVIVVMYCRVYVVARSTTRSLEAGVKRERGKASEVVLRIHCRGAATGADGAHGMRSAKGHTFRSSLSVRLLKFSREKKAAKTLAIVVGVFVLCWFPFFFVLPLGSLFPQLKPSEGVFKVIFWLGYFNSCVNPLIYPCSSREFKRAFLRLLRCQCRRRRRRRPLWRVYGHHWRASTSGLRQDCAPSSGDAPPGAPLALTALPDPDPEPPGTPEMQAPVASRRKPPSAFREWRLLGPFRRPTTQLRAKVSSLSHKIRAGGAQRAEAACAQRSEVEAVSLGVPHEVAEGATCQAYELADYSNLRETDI
The assay is described as follows: ^3H‐prazosin whole‐cell radioligand binding, CHO‐α1D cells. The note with it: for Kd: CHO‐α1D cells; for Affinity selectivity ratio α1B vs α1D: higher affinity for α1D than α1B; for Affinity selectivity ratio α1A vs α1D: higher affinity for α1D than α1A.

Assay [3] relates to parental CHO cell line without any transfected receptors. The assay can be described thus: Intracellular calcium mobilization, parent CHO cells without transfected receptors. The format is cell-based, Chinese hamster. The note with it: Cricetulus griseus; CHO cells without transfected receptors; response at maximum concentration used (c2), as % of ionomycin (10μM) response; mean ± s.e.m.; read-out: Intracellular calcium release % ionomycin. (In general: A change in cytosolic calcium serves as a functional read-out for many receptors and channels.)

The target of assay [4] is T2, human α1D‐adrenoceptor (full length). The assay is described as follows: ^3H‐cAMP accumulation, CHO‐α1D cells. The assay is classed as cell-based. The note with it: cAMP accumulation without forskolin. A general note: Cyclic AMP is a second messenger, typically raised through Gs and lowered through Gi signalling.
The target in assay [5] is T1, human α1A‐adrenoceptor. The assay can be described thus: ^3H‐cAMP accumulation in the presence of 10 μM forskolin, CHO‐α1A cells. The note with it: CHO‐α1A cells; for EC50: 10 μM forskolin, read-out: cAMP accumulation (in presence of forskolin) Log EC50 (converted); for cAMP accumulation (in presence of forskolin) Fold increase: fold increase of the forskolin response. The format is cell-based.

For assay [6], the system named is parental CHO cell line without any transfected receptors. The assay is described as follows: Forskolin‐stimulated cAMP accumulation, parent CHO cells without transfected receptors. The assay is classed as cell-based, Chinese hamster. The note with it: CHO cells without transfected receptors.
Where [7] appears, read: given as log KD (negative), mean ± SEM, 'early plateau' = specific binding not fully inhibited.
Where [8] appears, read: 3H‐prazosin binding Log KD, whole‐cell binding (from Table 1), log values given negative.
[9] abbreviates: Log KD α1A, ^3H‐prazosin whole cell binding.
[10] abbreviates: Log KD α1D, ^3H‐prazosin whole cell binding, given as log KD (negative), mean ± SEM, 'early plateau' = specific binding not fully inhibited.

As usually defined, the Kd is the constant that tells how readily two partners part at equilibrium. Higher therefore signals lower affinity. A word on the EC50: it is the concentration needed to bring the measured effect to its halfway point.

Regarding `c1ccc(C2CC2)c(OCC2=NCCN2)c1` [Cirazoline], at human α1A‐adrenoceptor [1], the affinity, expressed as Kd, was 0.676 µM; the “Affinity selectivity ratio α1A vs α1B” value came out at 11.7 fold; the “Affinity selectivity ratio α1A vs α1D” value is reported as 4.4 fold. The compound further had an equilibrium dissociation constant (Kd) in assay [2] (setting [7]) of 2.95 µM. The “Affinity selectivity ratio α1B vs α1D” value in assay [2] worked out at 2.7 fold. For the same compound, the Emax in assay [3] came to 4.5 ± 0.8%. Besides, the “cAMP Log EC50” value in assay [4] is given as “No response”. At human α1A‐adrenoceptor [5], the EC50 was 0.0107 µM and the “cAMP accumulation (in presence of forskolin) Fold increase” value was 2.38 ± 0.15 fold. Further, the “cAMP accumulation (in presence of forskolin) % forskolin-stim cAMP at 100μM” value in assay [6] (response at 100μM only, EC50 not obtainable, % of forskolin-stimulated cAMP) is 82.4 ± 2.8%.

As for `CC(CCc1ccc(O)cc1)NCCc1ccc(O)c(O)c1` (centres unmarked) [Dobutamine], on human α1A‐adrenoceptor [1], the Kd is 0.457 µM, the “Affinity selectivity ratio α1A vs α1B” value is 7.9 fold and the “Affinity selectivity ratio α1A vs α1D” value is recorded as 9.5 fold. Moreover, binding in assay [2] (setting [8]) was characterised by a dissociation constant (Kd) of 4.37 µM. The same compound showed a dissociation constant Kd in assay [2] (setting [7]) of 4.37 µM. Also, in assay [4], the “cAMP Log EC50” value is “No response”. Besides, at human α1A‐adrenoceptor [5], the concentration for a half-maximal effect (EC50) was 0.661 µM and the “cAMP accumulation (in presence of forskolin) Fold increase” value is recorded as 1.98 ± 0.14 fold. Further, the “cAMP accumulation (in presence of forskolin) Log EC50” value in assay [6] was “No response”.

`CCNCC(O)c1cccc(O)c1` (centres unmarked) [Etilefrine] showed a Kd at human α1A‐adrenoceptor [1] (setting [9]) of 102 µM. Besides, on human α1A‐adrenoceptor [1], the “Affinity selectivity ratio α1A vs α1B” value is given as >9.8 fold. For the same compound, the Kd in assay [2] (setting [8]) was 35.5 µM. The affinity in assay [2] (setting [10]), expressed as Kd, was 35.5 µM. In assay [2], the “Affinity selectivity ratio α1A vs α1D” value was determined as 2.9 fold and the “Affinity selectivity ratio α1B vs α1D” value is >28.1 fold. In addition, the “cAMP Log EC50” value in assay [4] is “No response”. For the same compound, at human α1A‐adrenoceptor [5], the concentration for a half-maximal effect (EC50) was 1.29 µM and the “cAMP accumulation (in presence of forskolin) Fold increase” value is 2.17 ± 0.08 fold. Moreover, the “cAMP accumulation (in presence of forskolin) Log EC50” value in assay [6] is listed as “No response”.

As to `N=C(N)NC(=O)Cc1c(Cl)cccc1Cl` [Guanfacine], at human α1A‐adrenoceptor [1], the equilibrium dissociation constant (Kd) is 4.68 µM, the “Affinity selectivity ratio α1A vs α1B” value is 28.8 fold and the “Affinity selectivity ratio α1A vs α1D” value came to 2.5 fold. This compound also had a Kd in assay [2] (setting [7]) of 11.7 µM. Further, in assay [2], the “Affinity selectivity ratio α1B vs α1D” value is given as 11.5 fold. Moreover, the Emax in assay [3] worked out at 11.5 ± 2.9%. In addition, the “cAMP Log EC50” value in assay [4] is “No response”. In addition, on human α1A‐adrenoceptor [5], the concentration giving a half-maximal response (EC50) was 0.155 µM and the “cAMP accumulation (in presence of forskolin) Fold increase” value is listed as 2.22 ± 0.05 fold. Further, the “cAMP accumulation (in presence of forskolin) Log EC50” value in assay [6] is given as “No response”.

Take `C[C@H](N)[C@H](O)c1cccc(O)c1` [Metaraminol]: at human α1A‐adrenoceptor [1], the affinity, expressed as Kd, was 85.1 µM and the “Affinity selectivity ratio α1A vs α1B” value was >11.7 fold. In assay [2] (setting [8]), this compound had an equilibrium dissociation constant (Kd) of 56.2 µM. This compound gave a Kd in assay [2] (setting [7]) of 56.2 µM. In assay [2], the “Affinity selectivity ratio α1A vs α1D” value was 1.5 fold and the “Affinity selectivity ratio α1B vs α1D” value is >17.8 fold. Besides, the “cAMP Log EC50” value in assay [4] is recorded as “No response”. Also, at human α1A‐adrenoceptor [5], the half-maximal effective concentration (EC50) is 0.813 µM and the “cAMP accumulation (in presence of forskolin) Fold increase” value was determined as 2.54 ± 0.11 fold. Moreover, the “cAMP accumulation (in presence of forskolin) Log EC50” value in assay [6] is given as “No response”.

Take `COc1ccc(OC)c(C(O)C(C)N)c1` (centres unmarked) [Methoxamine]: the dissociation constant Kd on human α1A‐adrenoceptor [1] (setting [9]) is 23.4 µM; in assay [2] (setting [8]), 151 µM; in assay [2] (setting [10]), 151 µM. Further, the “Affinity selectivity ratio α1A vs α1B” value at human α1A‐adrenoceptor [1] is >42.7 fold. The “Affinity selectivity ratio α1A vs α1D” value on human α1A‐adrenoceptor [1] is 6.5 fold. In addition, in assay [2], the “Affinity selectivity ratio α1B vs α1D” value was >6.6 fold. Also, in assay [4], the “cAMP Log EC50” value is “No response”. Moreover, at human α1A‐adrenoceptor [5], the 50% effective concentration (EC50) was 0.398 µM. Besides, the “cAMP accumulation (in presence of forskolin) Fold increase” value on human α1A‐adrenoceptor [5] amounted to 2.19 ± 0.09 fold. The “cAMP accumulation (in presence of forskolin) Log EC50” value in assay [6] is listed as “No response”.

Turning to `c1ccc2c(CC3=NCCN3)cccc2c1` [Naphazoline], at human α1A‐adrenoceptor [1] (setting [9]), binding was characterised by a dissociation constant (Kd) of 0.288 µM. On human α1A‐adrenoceptor [1], the “Affinity selectivity ratio α1A vs α1B” value is on record as 6.3 fold and the “Affinity selectivity ratio α1A vs α1D” value is listed as 7.1 fold. Further, binding in assay [2] (setting [8]) was put at a Kd of 2.04 µM. In addition, the affinity in assay [2] (setting [10]), expressed as Kd, was 2.04 µM. The “cAMP Log EC50” value in assay [4] was “No response”. Besides, on human α1A‐adrenoceptor [5], the EC50 is 0.0417 µM and the “cAMP accumulation (in presence of forskolin) Fold increase” value came to 2.18 ± 0.05 fold. For the same compound, in assay [6], the “cAMP accumulation (in presence of forskolin) Log EC50” value was “No response”.

Turning to `Clc1ccc2nsnc2c1NC1=NCCN1` [Tizanidine], at human α1A‐adrenoceptor [1] (setting [9]), the equilibrium dissociation constant (Kd) was 3.47 µM. For the same compound, on human α1A‐adrenoceptor [1], the “Affinity selectivity ratio α1A vs α1B” value is 12.9 fold and the “Affinity selectivity ratio α1A vs α1D” value came to 1.1 fold. In assay [2] (setting [8]), this compound gave a Kd of 3.89 µM. The Kd in assay [2] (setting [10]) is 3.89 µM. In assay [2], the “Affinity selectivity ratio α1B vs α1D” value is reported as 11.5 fold. On human α1A‐adrenoceptor [5], the concentration giving a half-maximal response (EC50) is 0.123 µM and the “cAMP accumulation (in presence of forskolin) Fold increase” value was found to be 2.36 ± 0.10 fold. The “cAMP accumulation (in presence of forskolin) Log EC50” value in assay [6] was “No response”.
